Assay results: patent US11337949B2, “Thermostable formulation of biologically active substances” (CAPRETTO EHF., priority 2016, dated 2022)

How the values were obtained:
[1] = Thermostability of aqueous lipid solutions; type: physicochemical; conditions: exposed to temperature below 10° C. or above 25° C.
Source text: EP-0351651 describes the use of PEG-C8/C10-glycerides as an absorption promoter for insulin. Especially for orally and buccally administered insulin. From the disclosure it appears that an increase in concentration of PEG-C8/C10-glycerides results in an increase in absorption. With respect to a nasal composition the composition described has a relatively high concentration of absorption enhancer, namely about 50% w/w. WO2003070280 (Absorption enhancing agent) describes the use of PEG-C8/C10-glycerides as absorption promoter for e.g. sumatriptan, in most preferred concentrations of 0.1-10%. Here, the function of PEG-C8/C10-glycerides should not promote absorption, since that will remove the active ingredient from the surface such as the mucosal surface, and into the systemic circulation. However, PEG-C8/C10 is able to act as a thermostabilizer for formulations containing lipids that are insoluble in water.

[2] = test system: Staphylococcus aureus; conditions: cited from earlier work
[3] = test system: Staphylococcus epidermis; conditions: cited from earlier work
[4] = test system: Streptococci A; conditions: cited from earlier work
[5] = test system: Streptococci pyogenes; conditions: cited from earlier work
[6] = test system: Haemophilus influenzae; conditions: cited from earlier work
[7] = test system: Streptococcus D; conditions: cited from earlier work
[8] = test system: Streptococcus mutans; conditions: cited from earlier work
[9] = test system: Streptococcus pneumoniae; conditions: cited from earlier work
[10] = test system: Corynebacteria sp.; conditions: cited from earlier work
[11] = test system: Nococardia asteroides; conditions: cited from earlier work
[12] = test system: Micrococcus sp.; conditions: cited from earlier work
[13] = test system: Pseudomonas aeruginosa; conditions: cited from earlier work
[14] = test system: Listeria monocytogenes; conditions: cited from earlier work
[15] = test system: Lactobacillus jensenii; conditions: cited from earlier work
[16] = test system: Chlamydia trachomatis; conditions: cited from earlier work
[17] = test system: Neisseria gonorrhoeae; conditions: cited from earlier work
[18] = test system: Helicobacter pylori; conditions: cited from earlier work
[19] = test system: Campylobacter jejuni; conditions: cited from earlier work
[20] = test system: Candida albicans (yeast); conditions: cited from earlier work
[21] = test system: Herpes virus type 1 (HSV-1); conditions: cited from earlier work
[22] = test system: Herpes virus type 2 (HSV-2); conditions: cited from earlier work
[23] = test system: Respiratory syncytial virus (RSV); conditions: cited from earlier work
[24] = test system: Influenza A virus; conditions: cited from earlier work
[25] = test system: Parainfluenza virus type 2; conditions: cited from earlier work

CCCCCCCCCC(=O)OCC(O)CO (stereo not shown) [monocaprin]
precipitation in aqueous formulations [1]: will easily precipitate
bactericidal effect [2]: bacteriocid
bactericidal effect [3]: bacteriocid
bactericidal effect [4]: bacteriocid
bactericidal effect [5]: bacteriocid
bactericidal effect [6]: bacteriocid
effectiveness against microbe [7]: effective
effectiveness against microbe [8]: effective
effectiveness against microbe [9]: effective
effectiveness against microbe [10]: effective
effectiveness against microbe [11]: effective
effectiveness against microbe [12]: effective
effectiveness against microbe [13]: effective
effectiveness against microbe [14]: effective
effectiveness against microbe [15]: effective
effectiveness against microbe [16]: effective
effectiveness against microbe [17]: effective
effectiveness against microbe [18]: effective
effectiveness against microbe [19]: effective
effectiveness against microbe [20]: effective
effectiveness against virus [21]: effective
effectiveness against virus [22]: effective
effectiveness against virus [23]: effective
effectiveness against virus [24]: effective
effectiveness against virus [25]: effective
